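The compound was tested at five concentrations on cells cultured in 96-well plates, with a 48-hour exposure period. At the GI50, growth is halved.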 Calls of active or inactive are those of the source. Rule as the data show it: active = GI50 up to about 1.1 µM and inactive = higher. Some results are limits rather than exact numbers.

Test systems include KM12; 786-0; Hs-578T; SK-OV-3; SNB-75; SN12C; CAKI-1; SNB-19; SF-295; HT-29; UACC-62; SK-MEL-5; A498; K562; NCI-H23; LOX IMVI; RPMI-8226; NCI-H522; UACC-257.
What all share (experiment): DTP human tumour cell line panel, 48 h

A word on the GI50: it is the concentration giving 50% growth inhibition. As to `C=C1CCC(O)C/C1=C/C=C1\CCCC2(C)C1CCC2C(C)CCCC(C)C` (stereo not given), the GI50 in the assay with KM12 was 20.6 µM (inactive); with 786-0 it was 16.7 µM (inactive); in the assay with Hs-578T it was 17.6 µM (inactive); in the assay with SK-OV-3, 22.8 µM (inactive); with SNB-75, 17.4 µM (inactive); in the assay on SN12C, 16.6 µM (inactive). Further, the GI50 was 19.8 µM (inactive) with CAKI-1; 19.1 µM (inactive) in the assay with SNB-19; 19.6 µM (inactive) with SF-295; 15.3 µM (inactive) in the assay on HT-29; 18.8 µM (inactive) with UACC-62; 19.4 µM (inactive) with SK-MEL-5. Also, the GI50 in the assay on A498 was 21.3 µM (inactive); in the assay with K562, 21.2 µM (inactive); in the assay with NCI-H23, 18.5 µM (inactive); with LOX IMVI it was 17.9 µM (inactive); in the assay with RPMI-8226, 23.8 µM (inactive); in the assay on NCI-H522, 17.5 µM (inactive). The GI50 in the assay on UACC-257 was 17 µM (inactive).

Take `C/N=C(N)/N=C(\N)Nc1cc2ccccc2c2ccccc12`: the GI50 is 17.1 µM (inactive) with KM12; 12.4 µM (inactive) with 786-0; 16.9 µM (inactive) in the assay on Hs-578T; 16.3 µM (inactive) in the assay on SK-OV-3; 13 µM (inactive) in the assay on SNB-75; 12.5 µM (inactive) with SN12C. Also, the GI50 with CAKI-1 was 14.5 µM (inactive); in the assay on SNB-19, 15.8 µM (inactive); in the assay with SF-295, 17.1 µM (inactive); in the assay with HT-29 it was 15 µM (inactive); in the assay with UACC-62 it was 14.9 µM (inactive); in the assay on SK-MEL-5, 16.5 µM (inactive). The GI50 in the assay with A498 was 11.2 µM (inactive); with K562, 19.1 µM (inactive); in the assay with NCI-H23 it was 17.1 µM (inactive); in the assay with LOX IMVI, 13 µM (inactive); with RPMI-8226, 15.5 µM (inactive); in the assay with NCI-H522, 13.1 µM (inactive). Besides, the GI50 in the assay on UACC-257 is 16.7 µM (inactive).

For the molecule `CC(C)CC[C@H](O)[C@@H](C)[C@H]1[C@@H](OC2OC(C)C(O)C(O)C2O)C[C@H]2[C@@H]3CC=C4C[C@@H](O)CC[C@]4(C)[C@H]3[C@@H](O)C[C@]12C` (stereo not given in full), the GI50 in the assay with KM12 is 3.28 µM (inactive); in the assay on 786-0, 0.084 µM (active); in the assay with Hs-578T, 0.121 µM (active); with SK-OV-3, > 100 µM (inactive); in the assay with SNB-75 it was 5.4 µM (inactive); in the assay on SN12C, > 100 µM (inactive). In addition, the GI50 in the assay with CAKI-1 is 2.58 µM (inactive); with SNB-19, > 100 µM (inactive); in the assay with SF-295, 0.0402 µM (active); in the assay with HT-29, 1.75 µM (inactive); with UACC-62, 0.538 µM (active); with SK-MEL-5, 3.35 µM (inactive). Moreover, the GI50 in the assay on A498 was 3.46 µM (inactive); in the assay with K562 it was 0.235 µM (active); with NCI-H23, 8.49 µM (inactive); with LOX IMVI, 0.889 µM (active); in the assay with RPMI-8226, 0.0631 µM (active); in the assay on NCI-H522 it was 3.69 µM (inactive). Also, the GI50 in the assay on UACC-257 is 1.12 µM (inactive).

As to `O[C@@H]1C=C[C@]23CCN(Cc4cc5c(cc42)OCO5)[C@@H]3C1`, the GI50 in the assay on KM12 was 52.5 µM (inactive); in the assay on 786-0, 56.8 µM (inactive); in the assay on Hs-578T, > 100 µM (inactive); in the assay with SK-OV-3, > 100 µM (inactive); with SNB-75, 20.5 µM (inactive); in the assay with SN12C, 32.7 µM (inactive). Also, the GI50 in the assay on CAKI-1 was 26.8 µM (inactive); with SNB-19, 43.1 µM (inactive); in the assay on SF-295, 40 µM (inactive); with HT-29, 51.5 µM (inactive); in the assay on UACC-62 it was > 100 µM (inactive); with SK-MEL-5 it was > 100 µM (inactive). Besides, the GI50 was > 100 µM (inactive) with A498; > 100 µM (inactive) in the assay with K562; > 100 µM (inactive) with NCI-H23; 48.4 µM (inactive) in the assay on LOX IMVI; 50.7 µM (inactive) in the assay on RPMI-8226; 82.4 µM (inactive) in the assay on NCI-H522. Moreover, the GI50 with UACC-257 was 92 µM (inactive).

Regarding `Cc1cc(C)c(C2=NOC(c3ccccc3)(c3cc(=O)n(-c4ccccc4)s3)O2)c(C)c1` (stereo not given), the GI50 was 37 µM (inactive) with KM12; 19 µM (inactive) with 786-0; 52.6 µM (inactive) in the assay on Hs-578T; > 100 µM (inactive) in the assay with SK-OV-3; 26.5 µM (inactive) in the assay on SNB-75; 33 µM (inactive) in the assay with SN12C. The GI50 in the assay on CAKI-1 is 17.2 µM (inactive); in the assay with SNB-19, 50.6 µM (inactive); in the assay with SF-295 it was > 100 µM (inactive); in the assay on HT-29, 18.8 µM (inactive); in the assay with UACC-62, 23.2 µM (inactive); in the assay on SK-MEL-5 it was 74 µM (inactive). Further, the GI50 in the assay on A498 is > 100 µM (inactive); with K562 it was > 100 µM (inactive); with NCI-H23, 20.6 µM (inactive); in the assay on LOX IMVI, 15.8 µM (inactive); in the assay on RPMI-8226, 37 µM (inactive); in the assay on NCI-H522, 17.5 µM (inactive). For the same molecule, in the assay with UACC-257, the GI50 was 38.9 µM (inactive).

For the molecule `O=C1/C(=C/c2ccc(O)cc2)CCCC1CN1CCCCC1` (stereo not given), the GI50 in the assay on KM12 was 1.64 µM (inactive); in the assay on 786-0, 1.02 µM (active); with Hs-578T, 3.71 µM (inactive); with SK-OV-3 it was 16.6 µM (inactive); with SNB-75 it was 8.63 µM (inactive); with SN12C, 2.29 µM (inactive). Further, the GI50 in the assay with CAKI-1 is 2.56 µM (inactive); in the assay on SNB-19, 17.6 µM (inactive); in the assay on SF-295, 16.1 µM (inactive); with HT-29 it was 2.62 µM (inactive); in the assay on UACC-62, 1.83 µM (inactive); in the assay on SK-MEL-5, 6.01 µM (inactive). For the same molecule, the GI50 in the assay on A498 is 6.84 µM (inactive); with K562, 1.42 µM (inactive); in the assay on NCI-H23 it was 5.12 µM (inactive); with LOX IMVI, 1.56 µM (inactive); in the assay with RPMI-8226, 1.32 µM (inactive); in the assay on NCI-H522, 1.25 µM (inactive). Besides, the GI50 in the assay on UACC-257 is 2.52 µM (inactive).

In the case of `COc1cc2c(cc1OCc1ccccc1)NC(=O)[C@@H]1C[C@@H](O)CN1C2=O`, the GI50 is > 100 µM (inactive) in the assay on KM12; > 100 µM (inactive) with 786-0; > 100 µM (inactive) with Hs-578T; > 100 µM (inactive) in the assay with SK-OV-3; 35.6 µM (inactive) in the assay on SNB-75; > 100 µM (inactive) with SN12C. The GI50 in the assay with CAKI-1, in the assay on SNB-19, with SF-295, in the assay on HT-29, in the assay with UACC-62 and with SK-MEL-5 was > 100 µM (inactive) throughout. The GI50 in the assay on A498, in the assay on K562, with NCI-H23, with LOX IMVI, in the assay with RPMI-8226 and with NCI-H522 was > 100 µM (inactive) in each case. Also, the GI50 with UACC-257 is > 100 µM (inactive).

As to `CC1=NC(=Cc2ccc(O)cc2)C(=O)N1n1c(-c2ccccc2)nc2ccccc2c1=O`, the GI50 in the assay on KM12, with 786-0, in the assay on Hs-578T, in the assay on SK-OV-3, with SNB-75 and with SN12C was > 100 µM (inactive) each time. Further, the GI50 in the assay on CAKI-1, in the assay on SNB-19, in the assay with SF-295, in the assay with HT-29, with UACC-62 and with SK-MEL-5 was > 100 µM (inactive) each time. Besides, the GI50 with A498, in the assay on K562, in the assay on NCI-H23, in the assay with LOX IMVI, in the assay with RPMI-8226 and in the assay on NCI-H522 was > 100 µM (inactive) throughout. Further, the GI50 in the assay on UACC-257 is > 100 µM (inactive).

Take `CC(=O)O[C@H]1[C@@H](N2CCCCC2)C[C@H]2[C@@H]3CC=C4C[C@@H](N5CCCC5)CC[C@]4(C)[C@H]3CC[C@@]21C`: the GI50 in the assay on KM12 is > 100 µM (inactive); with 786-0, 36.7 µM (inactive); in the assay on Hs-578T, > 100 µM (inactive); in the assay with SK-OV-3, > 100 µM (inactive); in the assay with SNB-75, > 100 µM (inactive); in the assay on SN12C, > 100 µM (inactive). Further, the GI50 with CAKI-1 was > 100 µM (inactive); with SNB-19, > 100 µM (inactive); in the assay with SF-295, 67.5 µM (inactive); in the assay on HT-29, 15.3 µM (inactive); with UACC-62, > 100 µM (inactive); in the assay on SK-MEL-5 it was 32.4 µM (inactive). In addition, the GI50 is > 100 µM (inactive) in the assay on A498; 4.07 µM (inactive) in the assay with K562; > 100 µM (inactive) in the assay with NCI-H23; 35.6 µM (inactive) with LOX IMVI; 26.5 µM (inactive) with RPMI-8226; > 100 µM (inactive) with NCI-H522. Also, the GI50 in the assay with UACC-257 is 30.8 µM (inactive).

As for `COc1cc(NCCC2CCCCN2)c2ncccc2c1` (stereo not given), the GI50 in the assay with KM12 was 60.4 µM (inactive); in the assay on 786-0 it was > 82 µM (inactive); in the assay on Hs-578T it was > 96.4 µM (inactive); with SK-OV-3, > 100 µM (inactive); in the assay on SNB-75, 60.3 µM (inactive); in the assay with SN12C, > 49.4 µM (inactive). In addition, the GI50 with CAKI-1 is > 77.1 µM (inactive); in the assay with SNB-19, > 100 µM (inactive); in the assay on SF-295, 67.1 µM (inactive); with HT-29, 41.7 µM (inactive); in the assay on UACC-62 it was 24.8 µM (inactive); in the assay on SK-MEL-5, 25.1 µM (inactive). Further, the GI50 was 53.2 µM (inactive) with A498; > 44.2 µM (inactive) with K562; > 100 µM (inactive) with NCI-H23; 52.2 µM (inactive) in the assay on LOX IMVI; > 48.3 µM (inactive) with RPMI-8226; 55.7 µM (inactive) in the assay with NCI-H522. The GI50 in the assay with UACC-257 was 19.4 µM (inactive).

The values are drawn from ChEMBL document CHEMBL1201862, “PubChem BioAssay data set” (2004).
